Numbers after ± are expanded uncertainties.
Key:
[1] = 101.3 kPa, Liquid
[2] = xn = mol fraction of the nth substance listed; conditions: 101.3 kPa, Liquid, x2 = 0

Row | Structure (SMILES) | mass density ([1]; 293.15 K) [kg/m3] | viscosity ([1]; 293.15 K) [mPa·s] | mass density ([1]; 298.15 K) [kg/m3] | viscosity ([1]; 298.15 K) [mPa·s] | mass density ([1]; 303.15 K) [kg/m3] | viscosity ([1]; 303.15 K) [mPa·s] | mass density ([1]; 308.15 K) [kg/m3] | viscosity ([1]; 308.15 K) [mPa·s] | mass density ([1]; 313.15 K) [kg/m3] | viscosity ([1]; 313.15 K) [mPa·s] | mass density ([1]; 318.15 K) [kg/m3] | viscosity ([1]; 318.15 K) [mPa·s] | mass density ([1]; 323.15 K) [kg/m3] | viscosity ([1]; 323.15 K) [mPa·s] | mass density ([1]; 328.15 K) [kg/m3] | viscosity ([1]; 328.15 K) [mPa·s] | mass density ([1]; 333.15 K) [kg/m3] | viscosity ([1]; 333.15 K) [mPa·s] | other results
1 | CCCCCCCl [1-chlorohexane] | 878.52 ± 0.84 | 0.7704 ± 0.01 | 873.75 ± 0.88 | 0.7173 ± 0.0096 | 868.98 ± 0.91 | 0.6702 ± 0.0091 | 864.21 ± 0.95 | 0.6283 ± 0.0086 | 859.44 ± 0.99 | 0.591 ± 0.0082 | 854.67 ± 1 | 0.558 ± 0.0078 | 849.9 ± 1.1 | 0.5285 ± 0.0075 | 845.12 ± 1.1 | 0.5019 ± 0.0072 | 840.35 ± 1.1 | 0.4778 ± 0.0069 | 
2 | CCCCCC [hexane] | 659.44 ± 0.52 | 0.3163 ± 0.005 | 654.93 ± 0.56 | 0.3036 ± 0.0049 | 650.36 ± 0.6 | 0.2914 ± 0.0047 | 645.74 ± 0.64 | 0.2797 ± 0.0046 | 641.08 ± 0.68 | 0.2685 ± 0.0045 | 636.37 ± 0.72 | 0.258 ± 0.0044 | 631.61 ± 0.76 | 0.2482 ± 0.0043 | 626.81 ± 0.8 | 0.2391 ± 0.0042 | 621.95 ± 0.84 | 0.2308 ± 0.0041 | 
3 | CCCCCC [hexane] + CCCCCCCl |  |  |  |  |  |  |  |  |  |  |  |  |  |  |  |  |  |  | mass density ([2]; 293.15 K): 659.44 ± 0.52 kg/m3; viscosity ([2]; 293.15 K): 0.3163 ± 0.005 mPa·s; mass density ([2]; 298.15 K): 654.93 ± 0.56 kg/m3; viscosity ([2]; 298.15 K): 0.3036 ± 0.0049 mPa·s; mass density ([2]; 303.15 K): 650.36 ± 0.6 kg/m3; viscosity ([2]; 303.15 K): 0.2914 ± 0.0047 mPa·s; mass density ([2]; 308.15 K): 645.74 ± 0.64 kg/m3; viscosity ([2]; 308.15 K): 0.2797 ± 0.0046 mPa·s; mass density ([2]; 313.15 K): 641.08 ± 0.68 kg/m3; viscosity ([2]; 313.15 K): 0.2685 ± 0.0045 mPa·s; mass density ([2]; 318.15 K): 636.37 ± 0.72 kg/m3; viscosity ([2]; 318.15 K): 0.258 ± 0.0044 mPa·s; mass density ([2]; 323.15 K): 631.61 ± 0.76 kg/m3; viscosity ([2]; 323.15 K): 0.2482 ± 0.0043 mPa·s; mass density ([2]; 328.15 K): 626.81 ± 0.8 kg/m3; viscosity ([2]; 328.15 K): 0.2391 ± 0.0042 mPa·s; mass density ([2]; 333.15 K): 621.95 ± 0.84 kg/m3; viscosity ([2]; 333.15 K): 0.2308 ± 0.0041 mPa·s
